Source: patent publication US6573267B2, “Useful aroyl aminoacyl pyrrole compounds” (Ortho-McNeil Pharmaceutical, Inc., priority 2000, dated 2003)
Counter-ions that a name gives are not always drawn. Like-named read-outs stand apart in the source and are kept apart here.

Assays:
[1] = test system: toxic extensor seizure (maximal electroshock test); experiment: Mouse anticonvulsant model, maximal electroshock test (MES); format: in vivo; settings: for MES ED50 (Active @ 30): active at dose 30; for MES ED50 (Active @ 100): active at dose 100; for ED50: ip
Method: Procedure for Testing in Mouse Anticonvulsant Model
The compounds of Formula (I) and Formula (II) are useful as anticonvulsant agents. The anticonvulsant activity of the subject compounds was determined using a standard “maximal electroshock test” (MES). In this test, activity is indicated by a block of the toxic extensor seizure, as described by Swinyard, et al., in J. PharmacoL Exptl. Therap., 106, 319 (1952). A more recent description of current anticonvulsant drug screening is given in Swinyard, et al., in Epilepsia, 19, 409 (1978).
The anticonvulsant activity of compounds of this invention tested according to the Swinyard (1952) method are shown in Table 3, having values for the Mouse MES Model in ED50 per dose (in mg/kg, i.p.).

[2] = test system: mechanical allodynia (paw withdrawal threshold); experiment: Neuropathic pain model (Chung Model), spinal nerve ligation, mechanical allodynia with von Frey hairs; format: in vivo, Sprague-Dawley rats; settings: for inhibition in vivo at 30 mg/kg: read-out: % MPE
Method: Procedure for Testing in a Neuropathic Pain Model
The compounds of the present invention are useful in the treatment of neuropathic pain. The use of the compounds in treating neuropathic pain was determined using an animal model. This model was developed and first described by S. H. Chung and J. M. Chung, An Experimental Model for Peripheral Neuropathy Produced by Segmental Spinal Nerve Ligation in the Rat, Pain, 1992, 50, 355-363 (referred to hereinafter as the “Chung Model”).
Male Sprague-Dawley rats, weighing approximately 200 g each were anesthetized with isoflurane. The spinal nerve at the level of L5 was exposed through an incision just left of the dorsal midline and tightly ligated with 6-0 silk. At various times after surgery, animals were tested for mechanical allodynia with von Frey hairs (monofilaments which are calibrated to bend under a certain amount of pressure, ranging from 0.41 to 15.1 g). In order to calculate a paw withdrawal threshold (PWT), tactile allodynia was measured by recording the pressure at which the affected paw was withdrawn from graded stimuli according to the procedure of S. R. Chaplan, J. W. Pogrel, T. L. Yaksh, Role of Voltage-Dependent Calcium Channel Subtypes in Experimental Tactile Allodynia, J. Pharmacol. Exp. Ther. 1994, 269,1117-1123. Normal rats can withstand at least 15 g of pressure without responding. Operated rats, however, can respond to as little as 0.25 g of pressure. The surgery was deemed successful if the animal responded with a PWT of less than 4 g of pressure applied to the affected paw.
The sham operation consisted of a similar surgery; the spinal nerve was visualized without being ligated. […] The results of the assay were expressed as percent of the maximum possible effect (% MPE), calculated as the PWT at the time of testing minus the baseline PWT divided by the maximum PWT (15 g) minus the baseline PWT times 100.
The compounds having Formula (I) and Formula (II) were tested for activity against neuropathic pain by being dissolved or suspended in either water or hydroxypropyl methylcellulose, respectively. Postoperative animals between 14 to 42 days were fasted overnight prior to dosing. Animals were orally dosed and dosage volumes were calculated on a 4 mL/kg basis. The screening dose employed was 30 mg/kg.

[3] = Chung Model rat, antiallodynic activity, oral screening dose 30 mg/kg

SMILES	melting point	inhibition in vivo at 30 mg/kg [2, 3] [%]	further results
Cn1cc(C(=O)c2cccc3ccccc23)cc1C(=O)CN1CCCCC1 [Cpd 4, 1-[4-(1-Naphthalenoyl)-1-methyl-1H-pyrrol-2-yl]-2-(1-piperidinyl)ethanone]			MES ED50 (Active @ 30) ([1]; i.p.): Active @ 30; inhibition in vivo at 30 mg/kg ([2]; Rattus norvegicus, po): 12%
Cn1cc(C(=O)c2cccc3ccccc23)cc1C(=O)CN1CCCCC1 (as salt: HCl) [Cpd 4, 1-[4-(1-Naphthalenoyl)-1-methyl-1H-pyrrol-2-yl]-2-(1-piperidinyl)ethanone]	246 to 248 °C		
CCC(N(C)C)n1cc(C(=O)CN2CCCCC2)cc1C(=O)c1ccc(Cl)cc1 (stereo not shown) (as salt: HCl) [Cpd 14, 1-[5-(4-Chlorobenzoyl)-1-(N,N-dimethylaminoprop-3-yl) -1H-pyrrol-3-yl]-2-(1-piperidinyl)ethanone]	138 to 141 °C		
CCN(CC)CC(=O)c1cc(C(=O)c2cccnc2)n(C)c1 (as salt: HCl) [Cpd 12, 1-[5-(3-Pyridinoyl)-1-methyl-1H-pyrrol-3-yl]-2-(N,N-diethylamino)ethanone]	158 to 160 °C (dec.)		
Cn1cc(C(=O)CN2CCCCC2)cc1C(=O)c1cccs1 [Cpd 11, 1-[5-(2-Thienoyl)-1-methyl-1H-pyrrol-3-yl]-2-(1-piperidinyl)ethanone]	178 to 179 °C	34	MES ED50 (Active @ 30) ([1]; i.p.): Active @ 30
CCN(CC)CC(=O)c1cc(C(=O)c2ccc3ccccc3c2)n(C)c1 (as salt: HCl) [Cpd 13, 1-[5-(2-Naphthalenoyl)-1-methyl-1H-pyrrol-3-yl]-2-(N,N-diethylamino)ethanone]	195 to 196 °C		
CC(N(C)C)n1cc(C(=O)c2ccc3ccccc3c2)cc1C(=O)CN1CCCCC1 (stereo not shown) (as salt: HCl) [Cpd 5, 1-[4-(2-Naphthalenoyl)-1-(N,N-dimethylaminoeth-2-yl)-1H-pyrrol-2-yl]-2-(1-piperidinyl)ethanone]	239 to 242 °C		
CCN(CC)CC(=O)c1cc(C(=O)c2cccc3ccccc23)cn1C (as salt: HCl) [Cpd 3, 1-[4-(1-Naphthalenoyl)-1-methyl-1H-pyrrol-2-yl]-2-(N,N-diethylamino)ethanone]	222 to 224 °C		
CCCOn1cc(C(=O)CN(CC)CC)cc1C(=O)c1ccc(Cl)cc1 [Cpd 9, 1-[5-(4-Chlorobenzoyl)-1-ethylmethoxy-1H-pyrrol-3-yl]2-[N,N-diethylamino]ethanone]		5	MES ED50 (Active @ 100) ([1]; i.p.): Active @ 100
CCN(CC)CC(=O)c1cc(-c2ccc(Cl)s2)n(C)c1 [Cpd 6, 1-[5-(5-Chlorothieno-2-yl)-1-methyl-1H-pyrrol-3-yl]-2-(N,N-diethylamino)ethanone]			MES ED50 (Active @ 30) ([1]; i.p.): Active @ 30; % MPE [2, 3]: 54 % MPE
CCN(CC)CC(=O)c1cc(C(=O)c2ccc3ccccc3c2)n(C)c1 [Cpd 13, 1-[5-(2-Naphthalenoyl)-1-methyl-1H-pyrrol-3-yl]-2-(N,N-diethylamino)ethanone]		80	MES ED50 (Active @ 300) ([1]; i.p., active at dose 300): Active @ 300
CCSCn1cc(C(=O)CN(CC)CC)cc1C(=O)c1ccccc1Cl (as salt: HCl) [Cpd 16, 1-[5-(2-Chlorobenzoyl)-1-ethylthiomethyl-1H-pyrrol-3-yl]-2-(N,N-diethylamino)ethanone]	157 to 158 °C		
CCN(CC)CC(=O)c1cc(C(=O)c2ccc3ccccc3c2)cn1C [Cpd 1, 1-[4-(2-Naphthalenoyl)-1-methyl-1H-pyrrol-2-yl]-2-(N,N-diethylamino)ethanone]		80	ED50 [1]: 11 mg/kg
CCN(C)CC(=O)c1cc(C(=O)c2ccc3ccccc3c2)n(C)c1 [Cpd 15, 1-[5-(2-Naphthalenoyl)-1-methyl-1H-pyrrol-3-yl]-2-(N,N-ethylmethylamine)ethanone]			MES ED50 (Active @ 30) ([1]; i.p.): Active @ 30; % MPE [2, 3]: 40 % MPE
CCN(CC)CC(=O)c1cc(C(=O)c2cccs2)n(C)c1 (as salt: salt) [Cpd 10, 1-[5-(2-Thienoyl)-1-methyl-1H-pyrrol-3-yl]-2-(N,N-diethylamino)ethanone]	153 to 155 °C		
CCCOn1cc(C(=O)CN(CC)CC)cc1C(=O)c1ccc(Cl)cc1 (as salt: HCl) [Cpd 9, 1-[5-(4-Chlorobenzoyl)-1-ethylmethoxy-1H-pyrrol-3-yl]2-[N,N-diethylamino]ethanone]	149 to 151 °C		
CCN(CC)CC(=O)c1cc(C(=O)c2cccnc2)n(C)c1 [Cpd 12, 1-[5-(3-Pyridinoyl)-1-methyl-1H-pyrrol-3-yl]-2-(N,N-diethylamino)ethanone]		4	MES ED50 (Active @ 100) ([1]; i.p.): Active @ 100
CCN(CC)CC(=O)c1cc(C(=O)c2cccs2)cn1C (as salt: HCl) [Cpd 2, 1-[4-(2-Thienoyl)-1-methyl-1H-pyrrol-2-yl]-2-(N,N-diethylamino)ethanone]	196 to 198 °C		
Cn1cc(C(=O)c2ccc3ccccc3c2)cc1C(=O)CN1CCCCC1 (as salt: HCl) [Cpd 17, 1-[4-(2-Naphthalenoyl)-1-methyl-1H-pyrrol-2-yl]-2-(1-piperidinyl)ethanone]	246 to 248 °C		
CN1CCN(CC(=O)c2cc(C(=O)c3ccc(Cl)cc3)n(C)c2)CC1 [Cpd 7, 1-[5-(4-Chlorobenzoyl)-1-methyl-1H-pyrrol-3-yl]-2-(4-methyl-1-piperazinyl)ethanone]		21	ED50 [1]: 16.6 mg/kg
CCN(CC)CC(=O)c1cc(C(=O)c2cccs2)n(C)c1 [Cpd 10, 1-[5-(2-Thienoyl)-1-methyl-1H-pyrrol-3-yl]-2-(N,N-diethylamino)ethanone]		0	MES ED50 (Active @ 100) ([1]; i.p.): Active @ 100
Cn1cc(C(=O)CCN2CCCCC2)cc1C(=O)c1cccc2ccccc12 (as salt: HCl) [Cpd 8, 1-[5-(1-Naphthalenoyl)-1-methyl-1H-pyrrol-3-yl]-3-(1-piperidinyl)-1-propanone]	141 to 143 °C		
CCN(CC)CC(=O)c1cc(C(=O)c2cccs2)cn1C [Cpd 2, 1-[4-(2-Thienoyl)-1-methyl-1H-pyrrol-2-yl]-2-(N,N-diethylamino)ethanone]		14	MES ED50 (Active @ 30) ([1]; i.p.): Active @ 30
CCN(CC)CC(=O)c1cc(C(=O)c2ccc3ccccc3c2)cn1C (as salt: fumarate) [Cpd 1, 1-[4-(2-Naphthalenoyl)-1-methyl-1H-pyrrol-2-yl]-2-(N,N-diethylamino)ethanone]	130 to 132 °C		
Cn1cc(C(=O)CCN2CCCCC2)cc1C(=O)c1cccc2ccccc12 [Cpd 8, 1-[5-(1-Naphthalenoyl)-1-methyl-1H-pyrrol-3-yl]-3-(1-piperidinyl)-1-propanone]			MES ED50 (Active @ 30) ([1]; i.p.): Active @ 30; inhibition in vivo at 30 mg/kg ([2]; Rattus norvegicus, po): 25%
CCN(CC)CC(=O)c1cc(C(=O)c2cccc3ccccc23)cn1C [Cpd 3, 1-[4-(1-Naphthalenoyl)-1-methyl-1H-pyrrol-2-yl]-2-(N,N-diethylamino)ethanone]			MES ED50 (Active @ 30) ([1]; i.p.): Active @ 30; inhibition in vivo at 30 mg/kg ([2]; Rattus norvegicus, po): 87%
